Measurements as given in patent US9926282B2, “Phthalazinones and isoquinolinones as rock inhibitors” (BRISTOL-MYERS SQUIBB COMPANY, priority 2013, dated 2018).

Key:
ROCK2 = ROCK2 (Homo sapiens (Human), UniProt O75116); assay: ROCK assay (LABCHIP peptide phosphorylation), ROCK2; type: biochemical; details: 5 μM ATP, 1.5 μM peptide substrate
ROCK1 = ROCK1 (Homo sapiens (Human), UniProt Q13464); assay: ROCK assay (LABCHIP peptide phosphorylation), ROCK1; type: biochemical; details: 5 μM ATP, 1.5 μM peptide substrate; read-out: ROCK1 IC50
ROCK1, sequence (Q13464 whole entry, species assumed): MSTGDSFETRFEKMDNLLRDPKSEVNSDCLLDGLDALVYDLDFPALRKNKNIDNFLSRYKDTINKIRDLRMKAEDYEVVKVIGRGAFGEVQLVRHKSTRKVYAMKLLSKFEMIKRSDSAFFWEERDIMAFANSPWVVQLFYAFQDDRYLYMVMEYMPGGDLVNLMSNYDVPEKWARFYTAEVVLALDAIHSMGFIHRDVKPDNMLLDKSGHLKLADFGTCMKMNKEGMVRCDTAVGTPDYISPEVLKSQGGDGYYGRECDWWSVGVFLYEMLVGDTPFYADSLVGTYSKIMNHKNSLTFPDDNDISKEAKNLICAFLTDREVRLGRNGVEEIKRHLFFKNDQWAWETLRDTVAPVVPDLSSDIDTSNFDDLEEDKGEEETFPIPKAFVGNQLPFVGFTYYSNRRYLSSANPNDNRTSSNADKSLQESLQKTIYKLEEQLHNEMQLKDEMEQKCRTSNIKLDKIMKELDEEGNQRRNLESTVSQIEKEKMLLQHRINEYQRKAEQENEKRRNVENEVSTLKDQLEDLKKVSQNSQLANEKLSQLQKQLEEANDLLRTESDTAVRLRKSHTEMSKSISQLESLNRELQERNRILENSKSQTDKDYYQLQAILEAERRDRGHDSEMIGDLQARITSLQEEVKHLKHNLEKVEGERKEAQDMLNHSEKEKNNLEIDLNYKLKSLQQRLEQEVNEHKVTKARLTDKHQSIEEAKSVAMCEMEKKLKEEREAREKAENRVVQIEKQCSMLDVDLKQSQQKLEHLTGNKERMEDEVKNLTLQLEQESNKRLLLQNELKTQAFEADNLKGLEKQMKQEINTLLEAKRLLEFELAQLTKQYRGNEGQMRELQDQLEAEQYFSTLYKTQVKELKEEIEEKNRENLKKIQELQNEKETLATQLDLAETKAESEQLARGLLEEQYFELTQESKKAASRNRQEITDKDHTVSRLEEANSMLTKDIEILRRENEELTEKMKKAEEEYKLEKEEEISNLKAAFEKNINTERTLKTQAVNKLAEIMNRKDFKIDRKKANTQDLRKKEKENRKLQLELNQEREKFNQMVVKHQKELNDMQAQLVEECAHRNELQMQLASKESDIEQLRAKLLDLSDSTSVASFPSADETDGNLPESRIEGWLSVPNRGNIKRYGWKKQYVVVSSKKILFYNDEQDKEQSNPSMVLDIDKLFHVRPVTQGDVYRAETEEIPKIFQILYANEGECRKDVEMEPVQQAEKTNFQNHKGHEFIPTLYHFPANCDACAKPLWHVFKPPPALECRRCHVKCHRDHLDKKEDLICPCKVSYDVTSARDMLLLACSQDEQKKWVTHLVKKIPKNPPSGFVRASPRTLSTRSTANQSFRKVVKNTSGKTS

ROCK2, sequence (O75116 whole entry, species assumed): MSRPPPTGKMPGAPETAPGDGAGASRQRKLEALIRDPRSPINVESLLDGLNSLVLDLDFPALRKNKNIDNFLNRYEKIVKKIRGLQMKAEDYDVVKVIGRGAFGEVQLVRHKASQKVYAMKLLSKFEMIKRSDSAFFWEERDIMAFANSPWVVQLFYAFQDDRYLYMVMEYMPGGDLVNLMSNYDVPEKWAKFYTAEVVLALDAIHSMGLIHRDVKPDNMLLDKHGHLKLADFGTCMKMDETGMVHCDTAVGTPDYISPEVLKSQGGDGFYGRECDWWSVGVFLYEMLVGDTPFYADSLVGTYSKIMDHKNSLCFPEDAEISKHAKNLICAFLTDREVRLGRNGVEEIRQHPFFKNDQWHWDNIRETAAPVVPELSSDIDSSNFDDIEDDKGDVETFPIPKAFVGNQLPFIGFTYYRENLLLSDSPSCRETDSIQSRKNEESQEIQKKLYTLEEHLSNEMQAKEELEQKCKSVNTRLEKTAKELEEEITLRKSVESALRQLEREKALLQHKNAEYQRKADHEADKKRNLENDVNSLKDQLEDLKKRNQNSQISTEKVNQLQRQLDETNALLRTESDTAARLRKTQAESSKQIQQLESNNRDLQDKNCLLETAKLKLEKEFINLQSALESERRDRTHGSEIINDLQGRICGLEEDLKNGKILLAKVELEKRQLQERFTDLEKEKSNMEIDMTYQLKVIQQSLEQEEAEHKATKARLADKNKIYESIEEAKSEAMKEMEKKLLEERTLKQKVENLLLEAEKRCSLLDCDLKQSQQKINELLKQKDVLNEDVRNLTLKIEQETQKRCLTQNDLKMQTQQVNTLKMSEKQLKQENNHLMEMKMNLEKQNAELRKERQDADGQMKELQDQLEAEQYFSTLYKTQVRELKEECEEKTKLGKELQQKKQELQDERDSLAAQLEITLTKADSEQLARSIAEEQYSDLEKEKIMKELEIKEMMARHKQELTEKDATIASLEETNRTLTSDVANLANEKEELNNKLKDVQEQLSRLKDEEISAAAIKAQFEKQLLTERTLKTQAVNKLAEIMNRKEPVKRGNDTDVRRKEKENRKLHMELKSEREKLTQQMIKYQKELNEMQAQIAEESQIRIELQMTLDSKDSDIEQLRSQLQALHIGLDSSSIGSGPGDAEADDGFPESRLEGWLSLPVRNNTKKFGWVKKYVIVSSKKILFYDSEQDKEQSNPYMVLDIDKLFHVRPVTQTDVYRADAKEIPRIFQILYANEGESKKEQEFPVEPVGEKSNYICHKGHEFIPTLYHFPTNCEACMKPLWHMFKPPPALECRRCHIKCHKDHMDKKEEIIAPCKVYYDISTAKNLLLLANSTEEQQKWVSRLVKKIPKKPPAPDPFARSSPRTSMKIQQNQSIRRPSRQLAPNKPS

SMILES	IC50 (ROCK2)	IC50 (ROCK1)
CN(C(=O)Cc1ccc(-c2n[nH]c(=O)c3ccccc23)cc1)c1ccccc1 [Example 22, N-methyl-2-[4-(4-oxo-3,4-dihydrophthalazin-1-yl)phenyl]-N-phenylacetamide]	1000 to 50000 nM	1000 to 50000 nM
COc1ccc2c(c1)CN(C(=O)Oc1ccc(-c3n[nH]c(=O)c4ccccc34)cc1)C2 [Example 70, 4-(4-Oxo-3,4-dihydrophthalazin-1-yl)phenyl 5-methoxyisoindoline-2-carboxylate]	0.1 to 100 nM	1000 to 50000 nM
O=C(Cc1ccc(-c2n[nH]c(=O)c3ccccc23)cc1)NCC1CC1 [Example 14, N-(cyclopropylmethyl)-2-[4-(4-oxo-3,4-dihydrophthalazin-1-yl)phenyl]acetamide]	1000 to 50000 nM	1000 to 50000 nM
O=C(Nc1ccc(-c2n[nH]c(=O)c3ccccc23)cc1)c1ccccc1 [Example 67, N-[4-(4-oxo-3,4-dihydrophthalazin-1-yl)phenyl]benzamide]	0.1 to 100 nM	101 to 1000 nM
COc1ccc(N2CCN(C(=O)Cc3ccc(-c4n[nH]c(=O)c5ccccc45)cc3)CC2)cc1 [Example 16, 4-(4-{2-[4-(4-methoxyphenyl)piperazin-1-yl]-2-oxoethyl}phenyl)-1,2-dihydrophthalazin-1-one]	1000 to 50000 nM	1000 to 50000 nM
Cc1cc(NC(=O)c2nn(CC3(C)COC3)c3ccccc23)ccc1-c1n[nH]c(=O)c2ccccc12 [Example 314, N-[3-methyl-4-(4-oxo-3,4-dihydrophthalazin-1-yl)phenyl]-1-[(3-methyloxetan-3-yl)methyl]-1H-indazole-3-carboxamide]	0.1 to 100 nM	0.1 to 100 nM
COc1cccc(-n2cc(C(=O)Nc3ccc(-c4n[nH]c(=O)c5ccccc45)cc3)nn2)c1 [Example 404, 1-(3-Methoxyphenyl)-N-(4-(4-oxo-3,4-dihydrophthalazin-1-yl)phenyl)-1H-1,2,3-triazole-4-carboxamide]	0.1 to 100 nM	0.1 to 100 nM
Cc1cc(NC(=O)Cc2ccc(-c3n[nH]c(=O)c4ccccc34)cc2)no1 [Example 27, N-(5-methyl-1,2-oxazol-3-yl)-2-[4-(4-oxo-3,4-dihydrophthalazin-1-yl)phenyl]acetamide]	0.1 to 100 nM	1000 to 50000 nM
Cc1cc(CC(=O)N2CCc3ccccc32)ccc1-c1c[nH]c(=O)c2ccccc12 [Example 264, 4-(4-(2-(Indolin-1-yl)-2-oxoethyl)-2-methylphenyl)isoquinolin-1(2H)-one]	0.1 to 100 nM	0.1 to 100 nM
COc1ccc2c(c1)N(C(=O)Cc1ccc(-c3n[nH]c(=O)c4ccccc34)cc1)CC2 [Example 41, 4-{4-[2-(6-methoxy-2,3-dihydro-1H-indol-1-yl)-2-oxoethyl]phenyl}-1,2-dihydrophthalazin-1-one]	0.1 to 100 nM	0.1 to 100 nM
COc1ccn2ncc(C(=O)Nc3ccc(-c4n[nH]c(=O)c5ccccc45)cc3)c2c1 [Example 182, 5-methoxy-N-[4-(4-oxo-3,4-dihydrophthalazin-1-yl)phenyl]pyrazolo[1,5-a]pyridine-3-carboxamide]	0.1 to 100 nM	0.1 to 100 nM
CCOc1ccc2oc(C)c(C(=O)Nc3ccc(-c4n[nH]c(=O)c5ccccc45)cc3)c2c1 [Example 100, 5-ethoxy-2-methyl-N-[4-(4-oxo-3,4-dihydrophthalazin-1-yl)phenyl]-1-benzofuran-3-carboxamide]	0.1 to 100 nM	0.1 to 100 nM
O=C(Cc1ccc(-c2n[nH]c(=O)c3ccccc23)cc1)N1CCc2cc(OC(F)(F)F)cc(Br)c21 [Example 253, 4-(4-(2-(7-Bromo-5-(trifluoromethoxy)indolin-1-yl)-2-oxoethyl)phenyl)phthalazin-1(2H)-one]	101 to 1000 nM	1000 to 50000 nM
O=C(Nc1ccc(-c2n[nH]c(=O)c3ccccc23)c(Cl)c1)c1nn(CC2CCOCC2)c2ccccc12 [Example 318, N-[3-chloro-4-(4-oxo-3,4-dihydrophthalazin-1-yl)phenyl]-1-(oxan-4-ylmethyl)-1H-indazole-3-carboxamide]	0.1 to 100 nM	0.1 to 100 nM
O=C(Nc1ccc(-c2n[nH]c(=O)c3ccccc23)c(CO)c1)c1nn(CC2CCOC2)c2ccccc12 (centres unmarked) [Example 355, N-(3-(Hydroxymethyl)-4-(4-oxo-3,4-dihydrophthalazin-1-yl)phenyl)-1-((tetrahydrofuran-3-yl)methyl)-1H-indazole-3-carboxamide]	0.1 to 100 nM	1000 to 50000 nM
O=C(Nc1ccc(-c2n[nH]c(=O)c3ccccc23)cc1O)c1nn(CC2CCOC2)c2ccccc12 (centres unmarked) [Example 354, N-(2-Hydroxy-4-(4-oxo-3,4-dihydrophthalazin-1-yl)phenyl)-1-((tetrahydrofuran-3-yl)methyl)-1H-indazole-3-carboxamide]	0.1 to 100 nM	0.1 to 100 nM
Cc1cc(CC(=O)N2CCc3ccccc32)ccc1-c1n[nH]c(=O)c2ccccc12 [Example 259, 4-(4-(2-(Indolin-1-yl)-2-oxoethyl)-2-methylphenyl)phthalazin-1(2H)-one]	0.1 to 100 nM	101 to 1000 nM

SMILES	IC50 (ROCK2)	IC50 (ROCK1)
O=C(Nc1ccc(-c2n[nH]c(=O)c3ccccc23)cc1)c1nn(CC2CCOC2)c2cc(F)ccc12 (centres unmarked) [Example 174, 6-fluoro-N-[4-(4-oxo-3,4-dihydrophthalazin-1-yl)phenyl]-1-(oxolan-3-ylmethyl)-1H-indazole-3-carboxamide]	0.1 to 100 nM	0.1 to 100 nM
O=C(Nc1ccc(-c2n[nH]c(=O)c3ccccc23)c(Cl)c1)c1cnc2ccccn12 [Example 317, N-[3-chloro-4-(4-oxo-3,4-dihydrophthalazin-1-yl)phenyl]imidazo[1,2-a] pyridine-3-carboxamide]	0.1 to 100 nM	0.1 to 100 nM
O=C(Nc1ccc(-c2n[nH]c(=O)c3ccccc23)cc1)c1cc2cc(Cl)cnc2[nH]1 [Example 119, 5-chloro-N-[4-(4-oxo-3,4-dihydrophthalazin-1-yl)phenyl]-1H-pyrrolo[2,3-b]pyridine-2-carboxamide]	0.1 to 100 nM	101 to 1000 nM
CC(C)(O)COc1ccc2c(c1)N(C(=O)Cc1ccc(-c3c[nH]c(=O)c4ccccc34)cc1)CC2 [Example 288, 4-(4-(2-(6-(2-Hydroxy-2-methylpropoxy)indolin-1-yl)-2-oxoethyl)phenyl)isoquinolin-1(2H)-one]	0.1 to 100 nM	0.1 to 100 nM
COc1ccc(-n2nnc(C(=O)Nc3ccc(-c4n[nH]c(=O)c5ccccc45)cc3)c2C)cc1 [Example 401, 1-(4-Methoxyphenyl)-5-methyl-N-(4-(4-oxo-3,4-dihydrophthalazin-1-yl)phenyl)-1H-1,2,3-triazole-4-carboxamide]	0.1 to 100 nM	0.1 to 100 nM
O=c1[nH]nc(-c2ccc(Nc3ncc4ccccc4n3)cc2)c2ccccc12 [Example 78, 4-{4-[(Quinazolin-2-yl)amino]phenyl}-1,2-dihydrophthalazin-1-one]	0.1 to 100 nM	101 to 1000 nM
Cc1c(C(=O)Nc2ccc(-c3n[nH]c(=O)c4ccccc34)cc2)cnn1-c1cccc(Cl)c1F [Example 202, 1-(3-chloro-2-fluorophenyl)-5-methyl-N-[4-(4-oxo-3,4-dihydrophthalazin-1-yl)phenyl]-1H-pyrazole-4-carboxamide]	0.1 to 100 nM	0.1 to 100 nM
CC(=O)N1CCC(Cn2nc(C(=O)Nc3ccc(-c4n[nH]c(=O)c5ccccc45)cc3)c3ccccc32)CC1 [Example 343, 1-((1-Acetylpiperidin-4-yl)methyl)-N-(4-(4-oxo-3,4-dihydrophthalazin-1-yl)phenyl)-1H-indazole-3-carboxamide]	0.1 to 100 nM	0.1 to 100 nM
Cc1cc(NC(=O)c2c3ccccc3nn2CC2COC2)ccc1-c1n[nH]c(=O)c2ccccc12 [Example 305, N-[3-methyl-4-(4-oxo-3,4-dihydrophthalazin-1-yl)phenyl]-2-(oxetan-3-ylmethyl)-2H-indazole-3-carboxamide]	1000 to 50000 nM	1000 to 50000 nM
O=C(Nc1ccc(-c2n[nH]c(=O)c3ccccc23)cc1)c1cccc(N2CCCC2)c1 [Example 62, N-[4-(4-oxo-3,4-dihydrophthalazin-1-yl)phenyl]-3-(pyrrolidin-1-yl)benzamide]	0.1 to 100 nM	0.1 to 100 nM
COc1cc(NC(=O)c2nn(CC(C)(C)O)c3ccccc23)ccc1-c1n[nH]c(=O)c2ccccc12 [Example 345, 1-(2-Hydroxy-2-methylpropyl)-N-(3-methoxy-4-(4-oxo-3,4-dihydrophthalazin-1-yl)phenyl)-1H-indazole-3-carboxamide]	0.1 to 100 nM	101 to 1000 nM
CC(C)=Cn1nc(C(=O)Nc2ccc(-c3n[nH]c(=O)c4ccccc34)cc2)c2ccc(F)cc21 [Example 179, 6-fluoro-1-(2-methylprop-1-en-1-yl)-N-[4-(4-oxo-3,4-dihydrophthalazin-1-yl)phenyl]-1H-indazole-3-carboxamide]	0.1 to 100 nM	0.1 to 100 nM
CN(C)c1cccc(C(=O)Nc2ccc(-c3c[nH]c(=O)c4ccccc34)cc2)c1 [Example 244, 3-(Dimethylamino)-N-[4-(1-oxo-1,2-dihydroisoquinolin-4-yl)phenyl]benzamide]	0.1 to 100 nM	0.1 to 100 nM
Cc1cc(C(=O)Nc2ccc(-c3n[nH]c(=O)c4ccccc34)cc2)nn1Cc1ccccc1 [Example 208, 1-benzyl-5-methyl-N-[4-(4-oxo-3,4-dihydrophthalazin-1-yl)phenyl]-1H-pyrazole-3-carboxamide]	0.1 to 100 nM	0.1 to 100 nM
CC(C(=O)N1CCc2ccccc21)c1ccc(-c2n[nH]c(=O)c3ccccc23)cc1 (centres unmarked) [Example 42, 4-(4-(1-(Indolin-1-yl)-1-oxopropan-2-yl)phenyl)phthalazin-1(2H)-one]	0.1 to 100 nM	1000 to 50000 nM
O=C(Nc1ccc(-c2n[nH]c(=O)c3ccccc23)cc1)c1cnn(C2CCOC2)c1 (centres unmarked) [Example 390, N-(4-(4-Oxo-3,4-dihydrophthalazin-1-yl)phenyl)-1-(tetrahydrofuran-3-yl)-1H-pyrazole-4-carboxamide]	0.1 to 100 nM	101 to 1000 nM
CC(C)(O)Cn1cc(C(=O)Nc2ccc(-c3n[nH]c(=O)c4ccccc34)cc2)c2cccnc21 [Example 169, 1-(2-hydroxy-2-methylpropyl)-N-[4-(4-oxo-3,4-dihydrophthalazin-1-yl)phenyl]-1H-pyrrolo[2,3-b]pyridine-3-carboxamide]	0.1 to 100 nM	0.1 to 100 nM
